Tests used:
[1] = test system: OCI-Ly10 human lymphoma xenografts; experiment: Antitumor activity in SCID mice bearing OCI-Ly10 human lymphoma xenografts, lenalidomide combination (Example 10); format: in vivo, mouse; conditions: alone or combined
[2] = Day 0 to Day 21; Compound A 60 mg/kg; lenalidomide 10 mg/kg; alone or combined
[3] = Body weight and tolerability, Ly19 bendamustine study (Example 4); conditions: for body weight Change (%), Day 3: Day 3 vs Day 0; for body weight Change (%), Day 7: Day 7 vs Day 0; for body weight Change (%), Day 10: Day 10 vs Day 0; for body weight Change (%), Day 14: Day 14 vs Day 0
[4] = test system: OCI-Ly10 human DLBCL xenografts; experiment: Antitumor activity in SCID mice bearing OCI-Ly10 human DLBCL xenografts, ibrutinib or bendamustine combination (Example 5); format: in vivo, mouse; conditions: Day 21, Compound A 60 mg/kg PO QD, ibrutinib 6 mg/kg PO QD, bendamustine 1 mg/kg IV BIW (6 doses), alone or combined with Compound A
TMD8 DLBCL xenografts = experiment: Antitumor activity in CB17 SCID mice bearing TMD8 DLBCL xenografts, bendamustine combination (Example 3); format: in vivo, mouse; conditions: bendamustine 1 mg/kg IV BIW, alone or combined, Day 14
[5] = Day 0 to Day 21; Compound A 30 mg/kg; bendamustine 1 mg/kg; rituximab 1 mg/kg; alone or combined
[6] = test system: OCI-Ly10 human lymphoma xenografts; experiment: Antitumor activity in SCID mice bearing OCI-Ly10 human lymphoma xenografts, bendamustine and rituximab (Example 6); format: in vivo, mouse; conditions: Day 21; Compound A 30 mg/kg PO QD x21; bendamustine 1 mg/kg IV BIW; rituximab 1 mg/kg IV QW x3; alone or combined
Ly19 xenografts = experiment: Antitumor activity in SCID mice bearing Ly19 xenografts, bendamustine combination (Example 4); format: in vivo, mouse; conditions: for Mean Tumor Volume (mm^3) ± SEM at Day 14 / TGI (%): Day 14; for dAUC: vs vehicle
[7] = Body weight and tolerability, TMD8 bendamustine study (Example 3); conditions: Compound A 60 mg/kg PO QD 14 d, alone or combined
[8] = Compound A 60 mg/kg, bendamustine 1.0 mg/kg, alone or combined
[9] = bendamustine 2.0 mg/kg, alone or with Compound A 60 mg/kg
[10] = Compound A 60 mg/kg PO QD x14, bendamustine 1.0 mg/kg IV BIW x2, alone or combined
[11] = bendamustine 2.0 mg/kg IV BIW x2, alone or with Compound A 60 mg/kg PO QD x14

In the case of `Nc1cccc2c1CN(C1CCC(=O)NC1=O)C2=O` (centres unmarked) [lenalidomide], the TGI ([1]; Day 21, Compound A 60 mg/kg PO QD x21, lenalidomide 10 mg/kg PO QD x21) is reported as 21.1%, the ΔAUC ([1]; vs vehicle, Compound A 60 mg/kg, lenalidomide 10 mg/kg) is reported as 15.2 (p = 0.014) and the “Mean maximum % BWL” value [2] is reported as 0%.

For `Cn1c(CCCC(=O)O)nc2cc(N(CCCl)CCCl)ccc21` [bendamustine], the “animal body weight (g), Day 0” value ([3]; Day 0, Compound A 60 mg/kg PO QD x14, bendamustine 1.0 mg/kg IV BIW x2, alone or combined, mean of 8) was 19.7 g, the “animal body weight (g), Day 3” value ([3]; Day 3, Compound A 60 mg/kg, bendamustine 1.0 mg/kg, alone or combined) was 19.9 g and the “body weight Change (%), Day 3” value [3, 8] was “+0.9%”. The “body weight Change (%), Day 3” value [3, 9] was “+2.0%”, the “body weight Change (%), Day 7” value [3, 8] was “+3.7%” and the “body weight Change (%), Day 7” value [3, 9] was “+3.2%”. For the same molecule, the “animal body weight (g), Day 10” value [3, 8] was 21.2 g, the “animal body weight (g), Day 10” value [3, 9] was 21.7 g and the “body weight Change (%), Day 10” value [3, 8] was “+7.7%”. For the same molecule, the “body weight Change (%), Day 10” value [3, 9] was “+6.2%”, the “animal body weight (g), Day 14” value [3, 8] was 22.3 g and the “animal body weight (g), Day 14” value [3, 9] was 22.6 g. For the same molecule, the “body weight Change (%), Day 14” value [3, 8] was “+13.1%”, the “body weight Change (%), Day 14” value [3, 9] was “+10.8%” and the TGI [4] was 43.7%. For the same molecule, the TGI ([4]; listed as Bendamustine) was 43.7%, the “Mean Tumor Volume (mm^3) ± SEM” value (TMD8 DLBCL xenografts; Compound A 60 mg/kg PO QD 14 d) was 1,529.2 ± 275.9 mm^3 and the T/C (TMD8 DLBCL xenografts; Compound A 60 mg/kg PO QD) was 0.87. For the same molecule, the “TGI (%)” value (TMD8 DLBCL xenografts; Compound A 60 mg/kg PO QD) was 13.4%, the “Maximum mean % BWL” value [5] was 0% and the TGI [6] was 49.7%. The “Mean Tumor Volume (mm^3) ± SEM at Day 14” value (Ly19 xenografts; [10]) was 2092.9 ± 175.8 mm^3, the “TGI (%)” value (Ly19 xenografts; [10]) was 16.2% and the “Mean Tumor Volume (mm^3) ± SEM at Day 14” value (Ly19 xenografts; [11]) was 2029.8 ± 248.8 mm^3. For the same molecule, the “TGI (%)” value (Ly19 xenografts; [11]) was 18.7%, the dAUC (Ly19 xenografts; [8]) was 10.9 and the dAUC (Ly19 xenografts; [9]) was 11.9. For the same molecule, the “% BW Change (Day Maximum)” value ([7]; bendamustine 1 mg/kg IV BIW 14 d, maximum change within treatment period) was 13.1 (14) % and the “Number of animals removed” value ([7]; bendamustine 1 mg/kg IV BIW) was 0.

Reference: patent US20190231757A1, “COMBINATION OF SPLEEN TYROSINE KINASE INHIBITORS AND OTHER THERAPEUTIC AGENTS” (Takeda Pharmaceutical Company Limited, priority 2016, published 2019)
